This note sets out measurements from patent US20050130989A1, “N-arylheteroaromatic products compositions containing them and use thereof” (Aventis Pharma S. A., priority 2003, published 2005).

For the assay, the target named is T1, tubulin (Sus scrofa, UniProt P02550+P02554).
T1 construct: Tubulin is purified from pig brain according to published methods; from tissue; host or cells: pig brain
The assay can be described thus: Evaluation of the inhibition of tubulin polymerization (turbidimetry). In kind it is biochemical, pig. The conditions noted are these: tubulin 10 μm (1 mg/ml), 37° C., turbidity at 350 nm; concentration that inhibits the rate of polymerization by 50%; read-out: Inhibition of tubulin polymerization IC 50 (μm). How it is done: Tubulin is purified from pig brain according to published methods (Shelanski et al., 1973, Proc. Natl. Acad. Sci. USA, 70, 765-768. Weingarten et al., 1975, Proc. Natl. Acad. Sci. USA, 72, 1858-1862). Briefly, the brains are ground and centrifuged in an extraction buffer. The tubulin contained in the supernatant of the extract undergoes two successive cycles of polymerization at 37° C. and depolymerization at 4° C., before being separated from the MAPs (Microtubule Associated Proteins) by chromatography on a phosphocellulose P11 column (Whatman). The tubulin thus isolated is more than 95% pure. It is stored in a buffer known as RB/2 30% glycerol, the composition of which is 50 mM MES-NaOH [2-(N-morpholino)ethanesulfonic acid], pH 6.8; 0.25 mM MgCl2; 0.5 mM EGTA; 30% glycerol (v/v), 0.2 mM GTP (guanosine-5′-triphosphate).
The polymerization of tubulin to microtubules is monitored by turbidimetry as follows: the tubulin is adjusted to a concentration of 10 μm (1 mg/ml) in RB/2 30% glycerol buffer to which 1 mM GTP and 6 mM MgCl2 are added. The polymerization is triggered by an increase in temperature from 6° C. to 37° C. in a cuvette with an optical path length of 1 cm, placed in a UVIKON 931 spectrophotometer (Kontron) equipped with a thermostatically maintained cuvette holder. The increase in the turbidity of the solution is monitored at 350 nm.
The products are dissolved at 10 mM in DMSO and added at variable concentrations (0.5 to 10 μm) to the tubulin solution before polymerization. The IC50 value is defined as the concentration of product that inhibits the rate of polymerization by 50%.

Structures can show the parent of a compound that is named as a salt.

T1 sequence (P02550 whole entry): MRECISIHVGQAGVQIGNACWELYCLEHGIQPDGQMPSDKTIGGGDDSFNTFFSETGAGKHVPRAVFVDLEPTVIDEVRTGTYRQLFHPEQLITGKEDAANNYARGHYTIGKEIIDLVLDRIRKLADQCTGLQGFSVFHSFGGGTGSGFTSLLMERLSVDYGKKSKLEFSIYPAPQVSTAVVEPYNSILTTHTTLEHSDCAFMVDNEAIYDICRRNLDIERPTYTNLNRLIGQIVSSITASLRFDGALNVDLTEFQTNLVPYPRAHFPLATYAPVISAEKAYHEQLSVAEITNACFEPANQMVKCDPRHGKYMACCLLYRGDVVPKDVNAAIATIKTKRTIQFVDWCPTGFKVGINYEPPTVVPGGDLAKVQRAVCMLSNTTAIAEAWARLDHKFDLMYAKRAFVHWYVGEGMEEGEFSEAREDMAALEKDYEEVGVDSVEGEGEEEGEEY
T1 sequence (P02554 whole entry): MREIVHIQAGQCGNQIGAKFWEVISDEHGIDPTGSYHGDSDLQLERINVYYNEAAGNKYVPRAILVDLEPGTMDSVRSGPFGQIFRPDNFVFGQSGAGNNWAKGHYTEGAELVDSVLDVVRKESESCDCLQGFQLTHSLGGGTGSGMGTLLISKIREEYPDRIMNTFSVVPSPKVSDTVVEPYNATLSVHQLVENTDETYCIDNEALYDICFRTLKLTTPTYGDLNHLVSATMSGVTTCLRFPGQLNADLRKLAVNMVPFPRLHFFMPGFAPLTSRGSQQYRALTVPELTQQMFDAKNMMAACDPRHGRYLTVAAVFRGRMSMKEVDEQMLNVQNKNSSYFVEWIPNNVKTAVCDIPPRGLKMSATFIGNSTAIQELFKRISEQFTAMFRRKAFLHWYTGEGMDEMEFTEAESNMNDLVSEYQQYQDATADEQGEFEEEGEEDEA

As to `COc1cc(OC)cc(N2CCN(C(=O)c3cc(COCCF)nn3-c3ccccc3)CC2)c1` [Example E123, [4-(3,5-Dimethoxyphenyl)piperazin-1-yl][5-(2-fluoroethoxymethyl)-2-phenyl-2H-pyrazol-3-yl]methanone], the IC50 came to 2.5 µM.
The figure for `COc1cccc(-n2nc(C)cc2C(=O)N2CCN(c3ccccc3C)CC2)c1` [3/134] is 4.3 µM.
Then `CSc1ccccc1N1CCN(C(=O)c2cc(C)nn2-c2ccccc2)CC1` [3/12], with 3 µM; and `Cc1ccc(C)c(-n2nc(C)cc2C(=O)N2CCN(c3cccc(Cl)c3)CC2)c1` [Example E47, [4-(3-Chlorophenyl)piperazin-1-yl][2-(2,5-dimethylphenyl)-5-methyl-2H-pyrazol-3-yl]methanone], with 1.55 µM.
Then `Cc1cc(C(=O)N2CCN(c3ccccc3F)CC2)n(-c2ccccc2)n1` [3/111], with 12.5 µM; and `COc1cc(OC)cc(N2CCN(C(=O)c3cc(C(C)O)nn3-c3ccccc3)CC2)c1` (centres unmarked) [Example E127, [4-(3,5-Dimethoxyphenyl)piperazin-1-yl][5-(1-hydroxyethyl)-2-phenyl-2H-pyrazol-3-yl]methanone], with 2.3 µM.
With “N-{{3-{[4-(3,5-Dimethoxyphenyl)piperazin-1-yl]carbonyl}-2-phenyl-2H-pyrazin-5-yl}glycine tert-butyl ester [Example E137]”, the IC50 was 3.2 µM.
Consider `COc1ccc(-n2nc(C)cc2C(=O)N2CCN(c3ccccc3)CC2)cc1` [3/1], for which the IC50 is 20 µM.
Then `Cc1cccc(-n2nc(C)cc2C(=O)N2CCN(c3cccc(C)c3C)CC2)c1` [3/114], with 0.8 µM; and `Cc1cc(C(=O)N2CCN(c3cccc(OC(F)F)c3)CC2)n(-c2ccccc2)n1` [Example E136, [4-(3-Difluoromethoxyphenyl)piperazin-1-yl](5-methyl-2-phenyl-2H-pyrazol-3-yl)methanone hydrochloride], with 1.3 µM.
The figure for `COc1cc(OC)cc(N2CCN(C(=O)c3cc(N4CCC4)nn3-c3ccccc3)CC2)c1` [Example E129, [5-(Azetidin-1-yl)-2-phenyl-2H-pyrazol-3-yl][4-(3,5-dimethoxyphenyl)piperazin-1-yl]methanone] is 0.9 µM.
Regarding `COc1cc(OC)cc(N2CCN(C(=O)c3cc(C(O)C4CCCC4)nn3-c3ccccc3)CC2)c1` (centres unmarked) [Example E124, [5-(Cyclopentylhydroxymethyl)-2-phenyl-2H-pyrazol-3-yl][4-(3,5-dimethoxy-phenyl)piperazin-1-yl]methanone], the IC50 is under 25 µM.
The figure for `CCOC(=O)/C=C/c1cc(C(=O)N2CCN(c3cc(OC)cc(OC)c3)CC2)n(-c2ccccc2)n1` [Example E112, Ethyl E-3-{5-[4-(3,5-dimethoxyphenyl)piperazine-1-carbonyl]-1-phenyl-1H-pyrazol-3-yl}acrylate] is 3 µM; for `COc1cc(OC)cc(N2CCN(C(=O)c3cc(-c4ccsc4C=O)nn3-c3ccccc3)CC2)c1` [Example E114, 3-{5-[4-(3,5-Dimethoxyphenyl)piperazine-1-carbonyl]-1-phenyl-1H-pyrazol-3-yl}thiophene-2-carboxaldehyde] it is 12.9 µM; for `COc1ccc(Cl)cc1N1CCN(C(=O)c2cc(C)nn2-c2cccc(Cl)c2)CC1` [3/127] it is 1.8 µM.
Then `COC(=O)/C=C/c1cc(C(=O)N2CCN(c3cc(OC)cc(OC)c3)CC2)n(-c2ccccc2)n1` [Example E126, Methyl E-3-{5-[4-(3,5-dimethoxyphenyl)piperazine-1-carbonyl]-1-phenyl-1H-pyrazol-3-yl}acrylate], with 0.8 µM; and `Cc1cc(C(=O)N2CCN(c3cccc(C)c3C)CC2)n(-c2cccc(Cl)c2)n1` [3/122], with 7.5 µM.
The figure for `COC(=O)CCC(=O)Nc1cccc(N2CCN(C(=O)c3cc(C)nn3-c3ccccc3)CC2)c1` [Example E83, Methyl N-{3-[4-(5-methyl-2-phenyl-2H-pyrazole-3-carbonyl)piperazin-1-yl]-phenyl}succinamate] is 20 µM.
In the case of `Cc1cc(C(=O)N2CCN(c3cccc(Cl)c3)CC2)n(-c2ccc([N+](=O)[O-])cc2)n1` [Example E49, [4-(3-Chlorophenyl)piperazin-1-yl][5-methyl-2-(4-nitrophenyl)-2H-pyrazol-3-yl]-methanone], the IC50 was 20.2 µM.
For the compound `COc1cccc(-n2nc(C)cc2C(=O)N2CCN(c3ccccc3SC)CC2)c1` [3/137], the IC50 came to 4.2 µM.
Consider `Cc1ccc(C)c(N2CCN(C(=O)c3cc(C)nn3-c3ccccc3)CC2)c1` [3/108], for which the IC50 turned out to be 3.5 µM.
`CCOc1ccccc1N1CCN(C(=O)c2cc(C)nn2-c2cccc(C)c2)CC1` [3/115]: the IC50 is 20 µM.
Take `Cc1cc(C(=O)N2CCN(c3cncc(O)c3)CC2)n(-c2ccccc2)n1` [Example E140, [4-(5-hydroxypyrid-3-yl)piperazin-1-yl](5-methyl-2-phenyl-2H-pyrazol-3-yl)-methanone]: the IC50 turned out to be 16.5 µM.
Then `COc1ccccc1N1CCN(C(=O)c2cc(C)nn2-c2ccc(C)cc2)CC1` [3/130], with under 25 µM; and `CCC(O)c1cc(C(=O)N2CCN(c3cc(OC)cc(OC)c3)CC2)n(-c2ccccc2)n1` (centres unmarked) [Example E125, [4-(3,5-Dimethoxyphenyl)piperazin-1-yl][5-(1-hydroxypropyl)-2-phenyl-2H-pyrazol-3-yl]methanone], with 4.1 µM; and `COc1cc(OC)cc(N2CCN(C(=O)c3cc(C(O)c4ccccc4)nn3-c3ccccc3)CC2)c1` (centres unmarked) [Example E131, [4-(3,5-Dimethoxyphenyl)piperazin-1-yl][5-(hydroxyphenylmethyl)-2-phenyl-2H-pyrazol-3-yl]methanone], with under 25 µM.
The figure for `Cc1cc(C(=O)N2CCN(c3cccc(CO)c3)CC2)n(-c2ccccc2)n1` [Example E132, [4-(3-Hydroxymethylphenyl)piperazin-1-yl](5-methyl-2-phenyl-2H-pyrazol-3-yl)methanone] is 0.9 µM.
The figure for `Cc1cc(C(=O)N2CCN(c3cc(Cl)ccc3C)CC2)n(-c2ccc(F)cc2)n1` [3/117] is 7 µM; for `Cc1cc(C(=O)N2CCN(c3ccc4c(c3)OCCO4)CC2)n(-c2cccc(F)c2)n1` [3/100] it is under 25 µM; for `O=C(c1cc(Br)nn1-c1ccc(Br)cc1)N1CCN(c2cccc(Cl)c2)CC1` [Example E64, [5-Bromo-2-(4-bromophenyl)-2H-pyrazol-3-yl][4-(3-chlorophenyl)piperazin-1-yl]methanone] it is 3.5 µM.
Take `COc1cc(OC)cc(N2CCN(C(=O)c3cc(Br)nn3-c3ccc(Br)cc3)CC2)c1` [Example E81, [5-Bromo-2-(4-bromophenyl)-2H-pyrazol-3-yl][4-(3,5-dimethoxyphenyl)-piperazin-1-yl]methanone]: the IC50 came to 17.1 µM.
Consider `COc1cc(OC)cc(N2CCN(C(=O)c3cc(CN)nn3-c3ccccc3)CC2)c1` [Example E120, (5-Aminomethyl-2-phenyl-2H-pyrazol-3-yl)[4-(3,5-dimethoxyphenyl)piperazin-1-yl]methanone], for which the IC50 worked out at 17.9 µM.
Take `Cc1cc(C(=O)N2CCN(c3cccc4ccccc34)CC2)n(-c2cccc(Cl)c2)n1` [3/124]: the IC50 amounted to 12 µM.
Then `O=C(c1cc(CSc2ccccc2)nn1-c1ccccc1)N1CCN(c2cccc(Cl)c2)CC1` [Example E102, [4-(3-Chlorophenyl)piperazin-1-yl](2-phenyl-5-phenylsulfanylmethyl-2H-pyrazol-3-yl)methanone], with 18 µM; and `Cc1cc(C(=O)N2CCN(c3ccc(C)c(C)c3)CC2)n(-c2ccc(F)cc2)n1` [3/103], with 21 µM; and `Cc1cc(C(=O)N2CCN(c3ccccn3)CC2)n(-c2ccccc2)n1` [3/107], with 12.5 µM.
Then `Cc1cc(C(=O)N2CCN(c3cc(Cl)ccc3C)CC2)n(-c2cccc(Cl)c2)n1` [3/70], with 12.5 µM; and `COc1cc(OC)cc(N2CCN(C(=O)c3cc(N4CCCCC4)nn3-c3ccccc3)CC2)c1` [Example E138, [4-(3,5-dimethoxyphenyl)piperazin-1-yl][5-(piperid-1-yl)-2-phenyl-2H-pyrazol-3-yl)methanone], with 22 µM.
The figure for `COc1cccc(N2CCN(C(=O)c3cc(C)nn3-c3ccccc3)CC2)n1` [Example E8, [4-(6-Methoxypyrid-2-yl)piperazin-1-yl](5-methyl-2-phenyl-2H-pyrazol-3-yl)-methanone] is 2 µM; for `C=CCNc1cc(C(=O)N2CCN(c3cc(OC)cc(OC)c3)CC2)n(-c2ccccc2)n1` [Example E130, (5-Allylamino-2-phenyl-2H-pyrazol-3-yl)[4-(3,5-dimethoxyphenyl)piperazin-1-yl]methanone] it is 1.5 µM; for `NC(=O)c1cccc(N2CCN(C(=O)c3ccnn3-c3ccccc3)CC2)c1` [Example E133, 3-[4-(2-Phenyl-2H-pyrazole-3-carbonyl)piperazin-1-yl]benzamide] it is 1 µM.
